Experimental data: patent US11161831B2, “Methods and compositions for treatment of muscle wasting, muscle weakness, and/or cachexia” (Baylor College of Medicine, priority 2013, dated 2021)

Assays:
mice = assay: Maximum tolerated dose in mice; type: in vivo, mouse; details: over 14 days, Tweardy et al, unpublished data
Text: Presently, there are no clinically available drugs that directly target Stat3. Small molecule, drug development programs are initiated that target either the Stat3 homodimer interface or the Stat3 SH2 domain; the latter is required for Stat3 binding to phosphotyrosylpeptide ligands located within activated receptor complexes and within the Stat3 homodimer itself. Three candidate compounds (C3, C30 and C188) were identified; some identified single compounds including static (Schust et al., 2006), STA-21 (Song et al., 2005), S31-201 (Siddiquee et al., 2007) or LLL12 (Lin et al., 2010). Regarding LLL12, the evidence for direct inhibition of Stat3 vs. an upstream kinase was not presented. […] Regarding potency, neither the parent compounds identified by others nor derivatives of them are as potent as C188-9 (Bhasin et al., 2008; Zhang et al., 2010). In addition, compounds identified by others that have been tested in mice are not as well tolerated as C188-9 (Lin et al., 2009; Zhang et al., 2010); those compounds have a maximum tolerated dose of 5 mg/kg every 2 or 3 days compared to 100 mg/kg/day over 14 days for C188-9 (Tweardy et al, unpublished data). Thus, C188-9 has promise as a lead for development into a drug that could be administered safely to patients.

[1] = tested on: CD2F1 mice bearing C26 tumor; assay: Cancer cachexia in CD2F1 mice bearing C26 tumor; type: in vivo, mouse
Procedure: FIGS. 39A-39G provides that blocking Stat3 activation with C188-9, a Stat3 inhibitor, suppresses cancer cachexia. CD2F1 mice bearing C26 tumor for 5 days were treated with C188-9 twice daily for 14 days. Results from these mice were compared to those of CD2F1 mice bearing tumor and treated with the diluent, 5% dextose in water (D5W). CD2F1 mice without C26 tumors served as the control mice. There were 12 mice in each group. FIG. 39A. representative western blots of different proteins (upper panel) were quantified (lower panel). Results shown are: FIG. 39B. body weights; FIG. 39C. muscle weights; FIG. 39D. the distribution of myofiber sizes of in the 3 groups of mice; FIG. 39E. muscle grip strength; and FIGS. 39F & 39G are measured rates of protein synthesis and degradation. Results are mean±SEM.
FIG. 41A. C2Cl2 myotubes were treated with conditioned media from C26 cells with or without C188-9 for 72 hours. A representative western blot showing a decrease in the myosin heavy chain is blocked by C188-9. FIG. 41B. C2Cl2 myotubes were treated with conditioned media from C26 cells with or without C188-9 for 24 hours. Levels of mRNAs of MAFbx/Atrogin-1 and MuRF-1 are shown. FIGS. 41C & 41D. CD2F1 mice bearing C26 tumors were treated with C188-9 for 2 weeks. […] FIG. 41E. […] Results are mean±SEM.
All animal experiments and procedures were approved by the Baylor College of Medicine Institutional Animal Care and Use Committee (IACUC). CD2F1 mice (Charles River; Houston, Tex.) were studied at 8-10 weeks of age following subcutaneous injection of C26 tumor cells (5×10^6 cells in 500 μL medium) in the right flank. After 5 days, tumor bearing mice were treated with daily injections of the diluent, D5W (control), or C188-9 (12.5 mg Stat3 inhibitor/kg body weight). Control and cancer bearing mice were pair-fed for 14 days and growth was measured. For pair-feeding, the amount eaten by the cancer-bearing mouse was fed to the paired, control mouse the following day.
As described Soleus and EDL muscles were rapidly removed from mice (Zhang et al., 2011; Clark and Mitch, 1983). The muscles were maintained at resting length during incubation in Krebs-Henseleit bicarbonate buffer with 10 mM glucose and L-[U-^14C]phenylalanine. Protein synthesis was measured as the rate of incorporation of L-[U-^14C]phenylalanine in muscle protein while protein degradation was assessed as the release of tyrosine from muscle proteins undergoing degradation. Phenylalanine and tyrosine were studied because they are neither synthesized nor degraded by muscle and they rapidly equilibrate with the intracellular free amino acid pool in muscle.
Proteasomes were partially purified by differential centrifugation; equal amounts of protein from the preparations of proteasomes were used to measure proteasome activity as the release of 7-amino-4-methylcoumarin (AMC) from the fluorogenic peptide substrate LLVY-AMC (N-Suc-Leu-Leu-Val-Tyr-AMC). AMC fluorescence was measured using 380 nm excitation and 460 nm emission wavelengths. The difference between the fluorescence measured in the presence and absence of […] lactacystin was used to calculate proteasome activity.
Mouse grip strength was measured as described (Zhang et al., 2013). Briefly, 5 grip strengths were assessed at 1 min intervals using the Grip Strength Meter (Columbus Instrument Co., Columbus, Ohio). The average grip strength over 4 days was calculated.

[2] = tumor bearing mice, EDL and soleus

Structure (SMILES): COc1ccc(S(=O)(=O)Nc2cc(-c3c(O)ccc4ccccc34)c(O)c3ccccc23)cc1 [C188-9]
- maximum tolerated dose (mice): 100 mg/kg/day
- Stat3 activation in muscle ([1]; 12.5 mg/kg for 14 days beginning at 5 days after tumor implantation): suppressed
- body weight ([1]; 14 days treatment, tumor in place for 19 days, vs. D5W): significant increase
- increased proteasome activity in muscle ([1]; mice bearing C26 tumor): suppressed
- grip strength ([1]; tumor bearing mice): improved grip strength
- sizes of myofibers ([1]; tumor bearing mice): improvement
- muscle protein degradation [1, 2]: decrease in protein degradation
- muscle protein synthesis [1, 2]: increase in protein synthesis
- weights of tibialis anterior, gastrocnemius, soleus and EDL muscles ([1]; vs. pair-fed, tumor bearing mice treated with D5W): significantly greater
